According to PubChem BioAssay AID1117319 (Southern Research Institute, 2015):
Inconclusive results are not listed.

Each compound was assayed against Virion infectivity factor (Human immunodeficiency virus type 1 group M subtype B (isolate BH10)) + Virion infectivity factor (Human immunodeficiency virus type 1 group M subtype B (isolate BRU/LAI)) + Virion infectivity factor (Human immunodeficiency virus type 1 group M subtype B (isolate PCV12)) + Virion infectivity factor (Human immunodeficiency virus type 1 group M subtype B (isolate HXB2)) + DNA dC->dU-editing enzyme APOBEC-3G (Homo sapiens) (UniProt P69720+P69721+P69722+P69723+Q9HC16) (assay: inhibitors of Vif binding to APOBEC3G peptide, primary screen, biochemical, TR-FRET, GST-Vif 1-94, biotin-A3G peptide, dose response retest (AID 1117319);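 also: Vif residues 1-94 fused to GST binding biotinylated APOBEC3G peptide 110-148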).
For `Cc1cc(C)c(S(=O)(=O)NCC2CCC(C(=O)N3CCC4(CC3)OCCO4)CC2)c(C)c1` (stereo unspecified), the IC50 was 39.6 µM.
Work on `c1coc(-c2nc(-c3ccco3)c(-c3ccco3)nc2-c2ccco2)c1` yielded an IC50 of 0.35 µM.
With `CNc1ccc(Br)cc(C(=O)/C=C/c2ccc(Cl)cc2Cl)c1=O` the IC50 was 9.23 µM.
`COc1ccc(CN2C(=O)NC(=O)/C(=C/c3ccc([N+](=O)[O-])o3)C2=O)cc1` showed an IC50 of 4.49 µM.
With `Cc1c(C(=O)N2CCN(c3ccc(F)cc3)CC2)sc2nc(-c3ccccc3)cn12` the IC50 was 48.7 µM.
With `O=[N+]([O-])c1ccc(-c2ccc(/C=N/c3c(-c4ccco4)nc4ccccn34)o2)cc1` the IC50 was 0.26 µM.
`COc1cccc(-c2cc(C(=O)Nc3c(C)n(C)n(-c4ccccc4)c3=O)no2)c1` gave an IC50 of 72.5 µM.
Compound `Cc1onc(-c2ccccc2Cl)c1C(=O)N1CCN(c2cccc(Cl)c2)CC1` has an IC50 of 95.4 µM.
`O=C(NCc1ccccc1Cl)c1csc2c1CCCCC2` gave an IC50 of 8.35 µM.
Work on `C=CCn1c(SCC(=O)c2cc(C)n(C(C)COC)c2C)nc2sc(C)c(C)c2c1=O` (stereo unspecified) yielded an IC50 of 27.1 µM.
For `CCN(CC)c1ccc2c(c1)CCCN2`, the IC50 was 1.17 µM.
Compound `CN(Cc1cnc2nc(N)nc(N)c2n1)c1ccc(C(=O)NC(CCC(=O)O)C(=O)O)cc1` (stereo unspecified) has an IC50 of 49.2 µM.
Compound `O=C(NN1C(=O)/C(=C/C=C/c2ccco2)SC1=S)c1ccncc1` has an IC50 of 2.37 µM.
Compound `O=C(NC(=S)N1CCCc2ccccc21)c1ccccc1` has an IC50 of 28.4 µM.
Compound `O=C(COC(=O)Cc1ccc(Cl)cc1)NCc1ccco1` has an IC50 of 7.37 µM.
With `NS(=O)(=O)c1ccc(N=Nc2ccc(=O)[nH]c2O)cc1` the IC50 was 5.22 µM.
`CC(=O)OC1COC(n2ccc3ccccc32)C(OC(C)=O)C1OC(C)=O` (stereo unspecified) was tested, and the IC50 was 22.6 µM.
For `O=C(O)c1ccc2c(c1)C1C(Cl)C(Sc3ccccc3[N+](=O)[O-])CC1C(c1cccc([N+](=O)[O-])c1)N2` (stereo unspecified), the IC50 was 11.8 µM.
In the case of `C(=C\c1ccco1)/c1ccc2ccccc2n1`, the IC50 is reported as 5.09 µM.
With `O=C1C(Cl)=C(N2CCOCC2)C(=O)N1c1ccccc1` the IC50 was 2.18 µM.
For `CCN(CC)c1ccc(C(=C2C=CC(=[N+](CC)CC)C=C2)c2ccccc2)cc1`, the IC50 was 11.8 µM.
For `COC1=C(N)C(=O)c2nc(-c3nc(C(=O)O)c(C)c(-c4ccc(OC)c(OC)c4O)c3N)ccc2C1=O`, the IC50 was 10.8 µM.
`COc1cc(/C=C/C=C2/CC/C(=C/C=C/c3ccc(O)c(OC)c3)C2=O)ccc1O` was tested, and the IC50 was 4.03 µM.
`c1ccc2c(c1)NCC1CCCN21` (stereo unspecified) showed an IC50 of 38.1 µM.
`CS(=O)(=O)N1CCCC(C(=O)NCCCN2CCC(Cc3ccccc3)CC2)C1` (stereo unspecified) showed an IC50 of 84.4 µM.
`CC(=O)c1sc(C(=O)O)c(-c2ccco2)c1-c1ccco1` gave an IC50 of 9.78 µM.
In the case of `O=C1/C(=C\c2ccco2)SC(=S)N1Cc1ccccc1`, the IC50 is reported as 3.56 µM.
With `CCCOc1ccc(N)cc1N` the IC50 was 7.66 µM.
Compound `O=C(CN1C(=O)NC2(CCCCCCC2)C1=O)NCc1ccc2c(c1)OCO2` has an IC50 of 99.2 µM.
`CN(C)c1cc(Cl)c2nonc2c1N` showed an IC50 of 11.9 µM.
For `Cc1ccc(/C=C/C(=O)Nc2ncc(C)s2)o1`, the IC50 was 7.07 µM.
For `Cc1cnc(NC(=O)CSc2nnc(CNc3ccc(F)cc3)n2CC2CCCO2)s1` (stereo unspecified), the IC50 was 53 µM.
In the case of `CNc1c(C(=O)O)ccc2c1C(=O)c1ccccc1C2=O`, the IC50 is reported as 25 µM.
For `Cc1ccc(C(=O)C2=C(O)C(=O)N(c3ncccn3)C2c2ccc(F)cc2)o1` (stereo unspecified), the IC50 was 21.8 µM.
With `O=C(CSc1ccccc1)N1CCN(c2ccccc2)CC1` the IC50 was 67.4 µM.
With `Cc1noc(/C=C/c2ccco2)c1S(=O)(=O)N1CCC(C(=O)NCc2ccco2)CC1` the IC50 was 1.84 µM.
`O=C1CC(Nc2ccc(N3CCOCC3)cc2)C(=O)N1c1ccccc1F` (stereo unspecified) was tested, and the IC50 was 1.65 µM.
`CN(C)c1ccc(NC(=O)CSc2nc3ccccc3c(=O)n2C2CCCCC2)cc1` was tested, and the IC50 was 21.7 µM.
`COc1ccc(C2CC(=O)N3CN(c4ccc(C)c(Cl)c4)CSC3=C2C#N)cc1` (stereo unspecified) was tested, and the IC50 was 81.2 µM.
With `CC1(C)N([O-])c2cc([N+](=O)[O-])ccc2[N+]1=O` the IC50 was 9.68 µM.
In the case of `CC1OC(CC(=O)O)CC2=C1C(=O)c1c(O)cccc1C2=O` (stereo unspecified), the IC50 is reported as 4.16 µM.
With `COc1ccc(-n2c(C)cc(C(=O)CSc3nn4c(=O)c(C(C)(C)C)nnc4s3)c2C)cc1` the IC50 was 10.3 µM.
Work on `C/C(=N\Nc1ccc(Cl)c(C(=O)O)c1)c1ccc[nH]1` yielded an IC50 of 8.87 µM.
With `Cc1[nH]c2ccccc2c1Cc1nnc(SCc2ccccc2)o1` the IC50 was 70.8 µM.
With `Cc1cccc(N2C(=O)NC(=O)/C(=C/c3cc4c(cc3[N+](=O)[O-])OCO4)C2=O)c1` the IC50 was 59.1 µM.
`COc1ccc(NC2CS(=O)(=O)CC2NCc2ccco2)cc1` (stereo unspecified) showed an IC50 of 62.7 µM.
In the case of `O=c1[nH][nH]c2c(N=Cc3ccccc3O)ccc(F)c12`, the IC50 is reported as 0.87 µM.
Work on `O=C(O)c1ccc(Sc2nnnn2-c2ccccc2)c([N+](=O)[O-])c1` yielded an IC50 of 89.9 µM.
For `O=C(O)c1c2c(nc3ccc(Cl)cc13)CCC2`, the IC50 was 23.4 µM.
For `COc1cc(-c2nnc(SCc3cc(=O)oc4cc(O)c(O)cc34)o2)cc(OC)c1OC`, the IC50 was 8.36 µM.
Compound `CN(CCC#N)C(=O)COC(=O)c1c2c(nc3ccccc13)/C(=C\c1ccco1)CC2` has an IC50 of 1.66 µM.
`O=C1CC(=O)N(Cc2ccco2)C(=O)N1` was tested, and the IC50 was 4.49 µM.
In the case of `CCOc1cccc(CNc2ccc(O)cc2)c1OCc1ccccc1Cl`, the IC50 is reported as 6.61 µM.
`O=C1C(=Cc2ccco2)CCCC1=Cc1ccco1` gave an IC50 of 12.1 µM.
With `COc1ccc(NC(=O)CC2Nc3cccc4cccc(c34)NC2=O)cc1` (stereo unspecified) the IC50 was 1.21 µM.
With `O=C(O)C1Nc2c(O)cccc2C2C=CCC12` (stereo unspecified) the IC50 was 0.25 µM.
